Measurements published in BindingDB's records for PubMed 40104800 (Jinan University).

Target: Eukaryotic elongation factor 2 kinase (mouse)
Experiment: Inhibition of eEF2K in mouse HT-22 cells preincubated for 20 mins followed by [33P]-ATP addition measured after 120 mins by radiometric Hotspot kinase assay

C=C(c1[nH]c2ccccc2c1CN1C/C(=C/C)[C@@H]2CC(=O)c3[nH]c4ccccc4c3C[C@H]1C2C(=O)OC)[C@H]1CCN(C)C/C1=C\C (stereo partly specified)
IC50: 136 µM
